Results reported in paper PMC3472114 (Journal of molecular biology, 2012).

B1: galactosamine-6-sulfatase (GALNS) (Homo sapiens) (protein)
chain: APQPPNILLLLMDDMGWGDLGVYGEPSRETPNLDRMAAEGLLFPNFYSANPLCSPSRAALLTGRLPIRNGFYTTNAHARNAYTPQEIVGGIPDSEQLLPELLKKAGYVSKIVGKWHLGHRPQFHPLKHGFDEWFGSPNCHFGPYDNKARPNIPVYRDWEMVGRYYEEFPINLKTGEANLTQIYLQEALDFIKRQARHHPFFLYWAVDATHAPVYASKPFLGTSQRGRYGDAVREIDDSIGKILELLQDLHVADNTFVFFTSDNGAALISAPEQGGSNGPFLCGKQTTFEGGMREPALAWWPGHVTAGQVSHQLGSIMDLFTTSLALAGLTPPSDRAIDGLNLLPTLLQGRLMDRPIFYYRGDTLMAATLGQHKAHFWTWTNSWENFRQGIDFCPGQNVSGVTTHNLEDHTKLPLIFHLGRDPGERFPLSFASAEYQEALSRITSVVQQHQEALVPAQPQLNVCNWAVMNWAPPGCEKLGKCLTPPESIPKKCLWSH

Assays:
[1] = target: T1, galactosamine-6-sulfatase (GALNS) (Homo sapiens, UniProt P34059); assay: biochemical
T1 sequence (P34059 27-522): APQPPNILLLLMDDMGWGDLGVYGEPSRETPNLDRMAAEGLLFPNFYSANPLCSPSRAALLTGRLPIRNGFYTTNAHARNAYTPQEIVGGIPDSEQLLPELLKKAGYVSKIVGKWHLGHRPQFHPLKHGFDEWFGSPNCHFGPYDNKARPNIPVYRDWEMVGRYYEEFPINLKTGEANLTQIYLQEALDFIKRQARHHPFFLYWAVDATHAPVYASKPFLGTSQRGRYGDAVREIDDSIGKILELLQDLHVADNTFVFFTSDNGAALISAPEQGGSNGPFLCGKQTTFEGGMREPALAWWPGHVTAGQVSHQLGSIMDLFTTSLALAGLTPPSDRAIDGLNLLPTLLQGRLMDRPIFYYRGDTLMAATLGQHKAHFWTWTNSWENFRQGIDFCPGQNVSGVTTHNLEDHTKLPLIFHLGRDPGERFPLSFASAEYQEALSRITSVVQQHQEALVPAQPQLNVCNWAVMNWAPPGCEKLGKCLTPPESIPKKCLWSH

[2] = substrate: Cc1cc(=O)oc2cc(O[C@@H]3O[C@H](COS(=O)(=O)O)[C@H](O)[C@H](O)[C@H]3O)ccc12; format: biochemical, Homo sapiens; settings: Ca2+; Cys79 modified to formylglycine/dihydroxyalanine (DHA) active site

Molecule	Ki [1] [µM]	Km [2] [mM]
O=S(=O)(O)O [sulfate]	570 ± 150	–
B1	–	13 ± 2
